From US20200268720A1, “METHODS OF USE OF A CLASS IIA HDAC INHIBITOR” (GlaxoSmithKline LLC, priority 2016, published 2020)

Columns and labels:
Format in all cases: in vivo, mouse
tumor macrophages = test: Macrophage phagocytosis and activation in tumors (IHC, immunocytochemistry, flow cytometry)
Description: Tumor cells were acquired from three DMSO and three TMP195 5-day treated autochthonous MMTV-PyMT mice. CD11b^+ cells were purified using the automacs (Miltenyi) automated machine according to manufacturer's protocol. CD11b cells were labeled with a CD11b-biotin antibody (101204, BioLegend) and retrieved with ultrapure biotin beads (Miltenyi 130-105-637). Following purification, CD11b^+ cells were cytospun at 300 rpm for 5 minutes onto slides. Cells were fixed in 4% PFA/Sucrose solution for 5 minutes at RT and stored in 4° C. until ready for use. Upon experimentation, slides were permeablized with 0.03% Triton-X for 10 minutes, followed by three 5 minute rinses with 1× PBS. Samples were blocked with 10% Normal Goat Serum (NGS) in 1×PBS for 1 hour at RT. Next cells were stained for the following antibodies anti-mouse/human CD11b (101201, BioLegend), anti-mouse F4/80 (Bio-Rad, MCA497R), and Alexa Fluor 594 anti-mouse CD326 (Ep-CAM) (118222, BioLegend) at 1:100, 1:50 and 1:25 dilution in 1% NGS/1×PBS respectively overnight at 4° C. The following morning, samples were rinsed three times with 1×PBS for five minutes each, replaced with Alexa Fluor 488 goat anti-rat IgG (405418, BioLegend) at 1:200 dilution in 1% NGS, and incubated for one hour at RT. All samples were counterstained with Dapi (P36930, Life Technologies) at 1:1000 dilution in 1% NGS. Next, the samples were rinsed three times for 5 minutes each with 1×PBS. Slides were dehydrated 2× with 95% ethanol and 1× with 100% ethanol. Coverslips were mounted using Prolong Gold antifade reagent (936930, Life Technologies) and imaged with Leica SP5X: Laser Scanning Confocal microscope at 40× magnification. For analysis immunocytochemistry images were assessed by using a co-localization pipeline. In general, the pipeline identified a primary image (nucleus) and a secondary image (CD11b^+). The overlapped images were identified as a “cell”. To avoid background signal, a minimum threshold was applied for the protein of interest (CD11b, F480 and EPCAM) and only the masked objects that had fell within the given dynamic range were considered CD11b or F480 positive. Finally the overlapped image identified as “cell” was masked with the threshold image of the EPCAM. Objects identified as positive for CD11b and EPCAM or F480 and EPCAM were normalized to the number of CD11b or F480 positive cells per image, and portrayed as an average percentage. A total of 60 individual CD11b+ cells and a total of 100 individual F480^+ cells were analyzed from each treatment group.

[1] = tested on: myeloid cells (CD11b+) and T lymphocyte (CD3+) populations in the tumor; test: Gene expression of FACS double-sorted tumor infiltrating leukocytes from MMTV-PyMT tumors
Description: Tumor cells were isolated and processed as previously described. To enrich for CD45^+ immune cells, EPCAM^+ tumor cell depletion was carried out. Whole tumor cell suspension was incubated with biotinylated anti-EPCAM antibody (MACS Miltenyi cat. #130-101-859, clone caa7-9G8) for 10 minutes followed by incubation with Anti-Biotin Microbeads (MACS Miltenyi cat. #130-090-485) for 15 minutes at 4° C. in the dark. […] Following negative selection, EPCAM-depleted cells were stained for anti-mouse CD45 Alex FLOUR® 488 (BioLegend cat. #103121, clone 30-F11), anti-mouse CD3 BV421 (BioLegend cat. #100227, clone 17A2), anti-mouse CD11b APC (BioLegend cat. #101211, clone M1/70), and anti-mouse CD19 (BioLegend cat. #115507, clone 6D5). 7-AAD Viability Staining Solution (BioLegend cat. #420403) was applied to the cells 10 minutes prior to sorting on the BD FACSAria. CD45+/CD19-/7-AAD-/CD3+ cells and CD45+/CD19-/7-AAD-/CD11b+ cells were sorted into DMEM medium (Life Technologies cat. #11995-065) containing 2% FBS at 4° C. Cells were pelleted and immediately lysed in RNEASY® RLT buffer (RNEASY® Mini Plus Kit, Qiagen cat. #74134) containing 2-mercaptoethanol. RNA was isolated according to RNEASY® instructions in combination with RNase-Free DNase Set (Qiagen cat. #79254) standard protocol, and quality was verified with the Nanodrop™ Spectrophotometer. To obtain adequate amounts of RNA tumors from 5 mice were pooled together for each “sample”.
All procedures were performed at Boston University Microarray Resource Facility as described in the GENECHIP® Whole Transcript (WT) Plus Reagent Kit Manual (Affymetrix, Santa Clara, Calif.). Briefly, the total RNA was isolated using an RNEASY® kit (Qiagen), and the sample integrity was verified using RNA 6000 Pico Assay RNA chips run in Agilent 2100 Bioanalyzer (Agilent Technologies). The total RNA (200 ng) was reverse transcribed using GENECHIP® WT PLUS Reagent Kit (Affymetrix). The obtained cDNA was used as a template for in vitro transcription using GeneChip® WT Expression Kit (Life Technologies). The obtained antisense cRNA was purified using Nucleic Acid Binding Beads (GENECHIP® WT PLUS Reagent Kit, Affymetrix) and used as a template for reverse transcription to produce single-stranded DNA in the sense orientation. During this step, dUTP was incorporated. The DNA was then fragmented using uracil DNA glycosylase (UDG) and apurinic/apyrimidinic endonuclease 1 (APE 1) and labeled with DNA labeling reagent covalently linked to biotin using terminal deoxynucleotidyl transferase (TdT, GENECHIP® WT PLUS Reagent Kit, Affymetrix). IVT and cDNA fragmentation quality controls were carried out by running an mRNA Pico assay in the Agilent 2100 Bioanalyzer. […]

MMTV-PyMT tumors = test: Single agent efficacy on tumor burden in autochthonous MMTV-PyMT mice
[2] = TMP195 daily for 5 days vs DMSO

CC(C)(CNC(=O)c1cccc(-c2noc(C(F)(F)F)n2)c1)c1coc(-c2ccccc2)n1 [TMP195, N-(2-methyl-2-(2-phenyloxazol-4-yl)propyl)-3-(5-(trifluoromethyl)-1,2,4-oxadiazol-3-yl)benzamide]
apoptotic bodies within tumor macrophages (cleaved caspase 3 IHC) (tumor macrophages; 5 days of TMP195): appearance of apoptotic bodies | intracellular EPCAM in F480+ and CD11b+ cells (phagocytosed breast tumor cells) (tumor macrophages; 5 days of TMP195): co-stain as EPCAM^+ | cells resembling tingible body macrophages (F480 IHC) (tumor macrophages; 5 days of TMP195 vs vehicle): marked appearance | proportion of F480+ and CD11b+ cells that express CD40 (tumor macrophages; 5 days of TMP195 vs vehicle): higher proportion | number of differentially expressed probes (δ-factor >1.5) in CD3+ cells [1, 2]: 3 probes | number of differentially expressed probes (δ-factor >1.5) in CD11b+ cells [1, 2]: 26 probes | increase in gene expression in CD11b+ myeloid cells ([1]; TMP195 daily for 5 days vs DMSO, probes with δ-factor >1.5): up to 4.8 fold | IFNγ response gene signature in tumor-resident CD11b+ cells ([1]; TMP195 treatment): induced an IFNγ response gene signature | rate of tumor growth (MMTV-PyMT tumors; total tumor burden 150-800 mm^3 at start, 13 days, 50 mg/kg TMP195 IP daily vs DMSO): significantly reduced | tumor burden, single agent (MMTV-PyMT tumors; total tumor burden 200-600 mm^3 at start, 50 mg/kg TMP195 IP daily vs vehicle): significant reduction
